We go through five molecules from PubChem BioAssay AID1918955 (Molecular Pharmacology Branch, DTP, NCI, 2023).

For the assay, the system named is NCI/ADR-RES complex spheroid viability. Nature of the assay: Anticancer human tumor NCI/ADR-RES cell line growth inhibition.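 For all read-outs here: spheroids exposed to compounds for 7 days.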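 For viability, T/C: 100% = DMSO vehicle treated spheroids.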 Particulars: for viability, T/C: stronger effect = lower value. In a few lines:
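Multicellular complex spheroids of tumor cells with human endothelial cells (HUVEC) and mesenchymal stem cells; the LSD1 inhibitor iadademstat was combined with standard-of-care or investigational agents. Top concentration at or near clinical Cmax, half-log dilutions; final DMSO ≤0.25%.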

The mark [1] stands for this setting: curve of first compound, second compound 0.1 µM.
The mark [2] stands for this setting: curve of first compound, second compound 0.316 µM.
Where [3] appears, read: curve of first compound, second compound 1 µM.
Setting [4] is: curve of first compound, second compound 3.16 µM.
Setting [5] is: curve of first compound, second compound 10 µM.
[6] abbreviates: second compound 0.1 µM, first compound 0.0316 µM.
[7] abbreviates: second compound 0.1 µM, first compound 0.1 µM.
The mark [8] stands for this setting: second compound 0.316 µM, first compound 0.0316 µM.
The mark [9] stands for this setting: second compound 0.316 µM, first compound 0.1 µM.
[10] abbreviates: second compound 1 µM, first compound 0.0316 µM.
Where [11] appears, read: second compound 1 µM, first compound 0.1 µM.
[12] abbreviates: second compound 3.16 µM, first compound 0.0316 µM.
The mark [13] stands for this setting: second compound 3.16 µM, first compound 0.1 µM.
[14] abbreviates: second compound 10 µM, first compound 0.0316 µM.
Setting [15] is: second compound 10 µM, first compound 0.1 µM.

Molecules are shown by their SMILES. Several values for one entry are separate records, joined by “and”; a condition that tells them apart may be missing. Identical values can stand only once.

As to `CC(C)c1c(-c2ccccc2)nc2c(C#N)c[nH]n2c1=O` + NC1CCC(NC2CC2c2ccccc2)CC1, the IC50 was > 10000 nM under setting [1]; > 10000 nM under setting [2]; > 10000 nM under setting [3]; > 10000 nM under setting [4]; > 10000 nM under setting [5]. The viability, T/C is, setting by setting: under setting [6], 102%; under setting [7], 111%; (second compound 0.1 µM, first compound 0.316 µM) 109%; (second compound 0.1 µM, first compound 1 µM) 100%; (second compound 0.1 µM, first compound 3.16 µM) 99.1%; (second compound 0.1 µM, first compound 10 µM) 105%. Also, the viability, T/C was 102% under setting [8]; 112% under setting [9]; 105% (second compound 0.316 µM, first compound 0.316 µM); 113% (second compound 0.316 µM, first compound 1 µM); 103% (second compound 0.316 µM, first compound 3.16 µM); 98.4% (second compound 0.316 µM, first compound 10 µM). The viability, T/C is 108% under setting [10]; 111% under setting [11]; 110% (second compound 1 µM, first compound 0.316 µM); 107% (second compound 1 µM, first compound 1 µM); 104% (second compound 1 µM, first compound 3.16 µM); 104% (second compound 1 µM, first compound 10 µM). Also, the viability, T/C by setting is: under setting [12], 105%; under setting [13], 104%; (second compound 3.16 µM, first compound 0.316 µM) 108%; (second compound 3.16 µM, first compound 1 µM) 107%; (second compound 3.16 µM, first compound 3.16 µM) 105%; (second compound 3.16 µM, first compound 10 µM) 97.3%. Further, the viability, T/C was 105% under setting [14]; 98.9% under setting [15]; 98.6% (second compound 10 µM, first compound 0.316 µM); 97.5% (second compound 10 µM, first compound 1 µM); 97.1% (second compound 10 µM, first compound 3.16 µM); 91.5% (second compound 10 µM, first compound 10 µM).
Consider `COc1cc(C2c3cc4c(cc3C(OC3OC5COC(C)OC5C(O)C3O)C3COC(=O)C23)OCO4)cc(OC)c1O` (centres undefined) + NC1CC1c1ccc(-c2cccc(O)c2)cc1, for which the IC50 reads like this: under setting [1], > 3000 nM; under setting [2], > 3000 nM; under setting [3], > 3000 nM; under setting [4], > 3000 nM; under setting [5], > 3000 nM. Also, the viability, T/C (second compound 0.1 µM, first compound 0.00949 µM) is 104%; the viability, T/C (second compound 0.1 µM, first compound 0.03 µM) is 112%; the viability, T/C (second compound 0.1 µM, first compound 0.0949 µM) is 106%; the viability, T/C (second compound 0.1 µM, first compound 0.3 µM) is 101%; the viability, T/C (second compound 0.1 µM, first compound 0.949 µM) is 100%; the viability, T/C (second compound 0.1 µM, first compound 3 µM) is 90.4%. The viability, T/C (second compound 0.316 µM, first compound 0.00949 µM) was 113%; the viability, T/C (second compound 0.316 µM, first compound 0.03 µM) is 104%; the viability, T/C (second compound 0.316 µM, first compound 0.0949 µM) is 106%; the viability, T/C (second compound 0.316 µM, first compound 0.3 µM) was 104%; the viability, T/C (second compound 0.316 µM, first compound 0.949 µM) is 103%; the viability, T/C (second compound 0.316 µM, first compound 3 µM) was 92.6%. Further, the viability, T/C (second compound 1 µM, first compound 0.00949 µM) is 102%; the viability, T/C (second compound 1 µM, first compound 0.03 µM) was 101%; the viability, T/C (second compound 1 µM, first compound 0.0949 µM) is 99.6%; the viability, T/C (second compound 1 µM, first compound 0.3 µM) is 96.5%; the viability, T/C (second compound 1 µM, first compound 0.949 µM) was 92.7%; the viability, T/C (second compound 1 µM, first compound 3 µM) is 92.4%. For the same molecule, the viability, T/C by setting is: (second compound 3.16 µM, first compound 0.00949 µM) 98.5%; (second compound 3.16 µM, first compound 0.03 µM) 100%; (second compound 3.16 µM, first compound 0.0949 µM) 95.2%; (second compound 3.16 µM, first compound 0.3 µM) 95.7%; (second compound 3.16 µM, first compound 0.949 µM) 94.2%; (second compound 3.16 µM, first compound 3 µM) 84.9%. Further, the viability, T/C reads like this: (second compound 10 µM, first compound 0.00949 µM) 84.6%; (second compound 10 µM, first compound 0.03 µM) 81%; (second compound 10 µM, first compound 0.0949 µM) 79.3%; (second compound 10 µM, first compound 0.3 µM) 80.2%; (second compound 10 µM, first compound 0.949 µM) 78.6%; (second compound 10 µM, first compound 3 µM) 71.1%.
Consider `Cn1ncnc1C1c2n[nH]c(=O)c3cc(F)cc(c23)NC1c1ccc(F)cc1` (centres undefined) + NC1CC1c1ccc(-c2cccc(O)c2)cc1, for which the IC50 is > 100 nM under setting [1]; > 100 nM under setting [2]; > 100 nM under setting [3]; > 100 nM under setting [4]; > 100 nM under setting [5]. The viability, T/C by setting is: (second compound 0.1 µM, first compound 0.000316 µM) 101%; (second compound 0.1 µM, first compound 0.001 µM) 104%; (second compound 0.1 µM, first compound 0.00316 µM) 106%; (second compound 0.1 µM, first compound 0.01 µM) 103%; under setting [6], 104%; under setting [7], 97%. Also, the viability, T/C is, setting by setting: (second compound 0.316 µM, first compound 0.000316 µM) 104%; (second compound 0.316 µM, first compound 0.001 µM) 107%; (second compound 0.316 µM, first compound 0.00316 µM) 104%; (second compound 0.316 µM, first compound 0.01 µM) 110%; under setting [8], 110%; under setting [9], 105%. Moreover, the viability, T/C was 98.2% (second compound 1 µM, first compound 0.000316 µM); 101% (second compound 1 µM, first compound 0.001 µM); 109% (second compound 1 µM, first compound 0.00316 µM); 95.8% (second compound 1 µM, first compound 0.01 µM); 100% under setting [10]; 102% under setting [11]. The viability, T/C reads like this: (second compound 3.16 µM, first compound 0.000316 µM) 105%; (second compound 3.16 µM, first compound 0.001 µM) 99.3%; (second compound 3.16 µM, first compound 0.00316 µM) 100%; (second compound 3.16 µM, first compound 0.01 µM) 97%; under setting [12], 97.3%; under setting [13], 93.8%. Moreover, the viability, T/C is, setting by setting: (second compound 10 µM, first compound 0.000316 µM) 97.1%; (second compound 10 µM, first compound 0.001 µM) 91.1%; (second compound 10 µM, first compound 0.00316 µM) 90.5%; (second compound 10 µM, first compound 0.01 µM) 96.8%; under setting [14], 94.6%; under setting [15], 85.3%.
Consider `COc1cc(Nc2ncc3c(n2)-c2ccc(Cl)cc2C(c2c(F)cccc2OC)=NC3)ccc1C(=O)O`, for which the viability, T/C is, setting by setting: (compound 0.00316 µM) 95.4% and 84.5%; (compound 0.01 µM) 64.5% and 50%; (compound 0.0316 µM) 32.7% and 30%; (compound 0.1 µM) 22.9% and 20.4%; (compound 0.316 µM) 22.6% and 16.1%; (compound 1 µM) 19.7% and 15.5%. Also, the IC50 (curve of compound) was 16.9 nM and 10 nM.
As to `O=C(C=Cn1cnc(-c2cc(C(F)(F)F)cc(C(F)(F)F)c2)n1)NNc1cnccn1`, the viability, T/C runs as follows: (compound 0.00316 µM) 69.8% and 61.6%; (compound 0.01 µM) 28.8% and 22.1%; (compound 0.0316 µM) 20.3% and 16.5%; (compound 0.1 µM) 10.6% and 5.99%; (compound 0.316 µM) 6.07% and 1.5%; (compound 1 µM) 2.27% and 0.91%. Also, the IC50 (curve of compound) was 5.78 nM and 4.49 nM.
